Where “and” joins values, the source holds several entries; their conditions need not be identical. Equal values may be shown once.
Experiments:
[1] = SD rat plasma pharmacokinetic test; type: in vivo
Protocol: Animal information: SD rats, male, n=6, about 180-200 g, purchased from Sibeifu (Beijing) Biotechnology Co., Ltd.
Animal dietary status: Animals are fasted for at least 12 h before administration and resumed eating 4h after administration; during the experiment, animals are allowed to drink water freely.
Administration: administering the compound to experimental animals (n=3) by intragastric administration at a dose of 10 mg/kg, and the solvent is 0.5% CMC-Na; administering the compound to experimental animals (n=3) by intravenous injection at a dose of 1 mg/kg, and the solvent is DMSO:PEG400:normal saline=5:30:65, preparing immediately before use.
Sample collection: collecting about 0.25 mL of whole blood at each time point, anticoagulating with EDTA-K2, and placing on ice immediately after collection, within 0.5 h after collection, centrifuging at 4° C., 2000 g for 5 min, and sucking up all plasma and placing in labeled EP tubes, placing the EP tubes on ice, and freezing the plasma samples in a −60˜−90° C. refrigerator within 0.5 h.
Sample processing: centrifuging whole blood samples at 4° C., 2000 g for 5 min within 30 min after collection to separate plasma, and collecting the upper plasma sample into a sample tube.
Sample testing and data processing: Using LC-MS/MS method to detect the concentration of the original drug in plasma samples at each time point. WinNonlin is used for fitting and pharmacokinetic parameter calculation.

[2] = biological target: recombinant TEAD3 protein (218-435, Uniprot ID: Q99594) (Homo sapiens (Human), UniProt Q99594); experiment: Thermal shift assay (protein melting point curve), TEAD3; type: binding; conditions: 10 μM TEAD protein, 50 μM test compound
[3] = In vitro liver microsome stability, mouse; type: in vitro ADME; conditions: mouse liver microsomes
Protocol: (§1) Testosterone is selected as the positive reference compound. The specific method is as follows:
(§2) Preparing 0.1MK3 PO4 (pH 7.4) buffer and 3×NADPH stock solution (6 mM, 5 mg/mL), and preheating in a 37° C. water bath; preparing spiking solution of tested compound and control compound: adding 5 μL compound stock solution (10 mM) to 95 μL acetonitrile; preparing 1.5 μM spiking solution in microsomes (0.75 mg/mL): add 1.5 μL spiking solution and 18.75 μL liver microsome solution (20 mg/mL) to 479.75 μL K3PO4 buffer; taking 30 μL spiking solution in microsomes and adding it to the multiwell plate, and incubating at 37° C. for 5 min; adding 15 μL of NADPH stock solution to each well, starting to react, and timing; adding 150 μL of acetonitrile solution containing IS at 0 min, 5 min, 15 min, 30 min, 45 min and 60 min respectively to terminate the reaction; after 10 min of oscillation, centrifuging the reaction at 6000 rpm for 15 min; taking 80 μL of supernatant from each well for LC/MS detection and calculating Ti/2.
(§3) Liver microsomes of mice, rats, dogs, and human used in the experiment are purchased from Xenotech.

[4] = In vitro liver microsome stability, dog; type: in vitro ADME; conditions: dog liver microsomes
Protocol: as §1, §2, §3

Caco-2 cells = experiment: Permeability test on Caco2 cells; type: in vitro ADME; conditions: for Papp average value: n = 2; for Papp / Receiving chamber concentration Area ratio/OD: single replicate
Protocol: After resuscitation, the Caco-2 cells are transferred to a conventional culture dish and cultured in a high-glucose DMEM medium (containing 10% FBS) at 37° C. and 5% CO2 in an incubator. When the cells cover 80% to 95% of the bottom of the dish, they are digested with trypsin containing 0.25% EDTA to disperse them into a single cell suspension, and the cell concentration is determined using a cell counter, after that, the concentration of the cell suspension is adjusted to 2 to 2.5×10^5/mL with fresh culture medium and inoculated into a Transwell polycarbonate membrane 12-well plate, the fresh culture medium is replaced every two days in the first two weeks and once a day in the last week, the culture is continued for 19 to 21 days to obtain a fully differentiated single cell layer.

recombinant TEAD3 protein (218-435, Uniprot ID: Q99594), sequence (Q99594 218-435): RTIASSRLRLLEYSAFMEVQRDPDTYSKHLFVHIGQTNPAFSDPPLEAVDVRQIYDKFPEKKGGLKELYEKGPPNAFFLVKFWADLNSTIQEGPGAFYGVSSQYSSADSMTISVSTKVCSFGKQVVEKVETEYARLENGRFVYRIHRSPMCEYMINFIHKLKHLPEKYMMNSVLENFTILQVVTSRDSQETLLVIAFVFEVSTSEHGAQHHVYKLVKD

Question: Which “pharmacokinetic properties in SD rats” value [1] does the source give for CP(C)(=O)c1ccc(NCc2ccc(C(F)(F)F)cc2)c(-c2nccc(OC3COC3)n2)c1 [Compound 17] here?
Answer: The value was “good pharmacokinetic properties”.

Question: What about the AUC0-t ([1]; SD rats, IG 10 mg/kg) of the same molecule?
Answer: Its AUC0-t is 4440 ng·h/mL.

Question: What about the “AUC0-∞” value ([1]; SD rats, IG 10 mg/kg) of the same molecule?
Answer: Its value is 4510 ng·h/mL.

Question: And the Cmax ([1]; SD rats, IG 10 mg/kg)?
Answer: Its Cmax is 1480 ng/mL.

Question: And the MRT0-t ([1]; SD rats, IG 10 mg/kg)?
Answer: The MRT0-t was 2.25 h.

Question: What about the “MRT0-∞” value ([1]; SD rats, IG 10 mg/kg) of the same molecule?
Answer: The value was 2.37 h.

Question: And the Tmax ([1]; SD rats, IG 10 mg/kg)?
Answer: Its Tmax is 0.50 (0.5, 0.5) h.

Question: What about the t1/2 ([1]; SD rats, IG 10 mg/kg) of the same molecule?
Answer: Its t1/2 is 1.26 h.

Question: And the “Absolute bioavailability (%)” value ([1]; SD rats, IG 10 mg/kg vs IV 1 mg/kg)?
Answer: The value was 84.9%.

Question: What about the AUC0-t ([1]; SD rats, IV 1 mg/kg) of the same molecule?
Answer: Its AUC0-t is 506 ng·h/mL.

Question: And the “AUC0-∞” value ([1]; SD rats, IV 1 mg/kg)?
Answer: Its value is 523 ng·h/mL.

Question: What about the CL ([1]; SD rats, IV 1 mg/kg) of the same molecule?
Answer: The CL was 1970 mL/h/kg.

Question: What about the Cmax ([1]; SD rats, IV 1 mg/kg) of the same molecule?
Answer: The Cmax was 333 ng/mL.

Question: And the MRT0-t ([1]; SD rats, IV 1 mg/kg)?
Answer: Its MRT0-t is 1.52 h.

Question: And the “MRT0-∞” value ([1]; SD rats, IV 1 mg/kg)?
Answer: Its value is 1.73 h.

Question: What about the Vss ([1]; SD rats, IV 1 mg/kg) of the same molecule?
Answer: Its Vss is 3360 mL/kg.

Question: And the t1/2 ([1]; SD rats, IV 1 mg/kg)?
Answer: Its t1/2 is 1.18 h.

Question: And the “Δ T m (TEAD3)” value [2]?
Answer: Its value is “+”.

Question: And the mouse half-life [3]?
Answer: The mouse half-life was 33.9 min.

Question: And the dog half-life [4]?
Answer: Its dog half-life is 141 min.

Question: And the Papp average value (Caco-2 cells; AP→BL)?
Answer: The Papp average value was 8.96 10^−6 cm/s.

Question: And the Papp (Caco-2 cells; AP→BL)?
Answer: The Papp was 8.81 10^−6 cm/s and 9.12 10^−6 cm/s.

Question: And the “Receiving chamber concentration Area ratio/OD” value (Caco-2 cells; AP→BL)?
Answer: Its value is 0.114 and 0.118.

Question: What about the Papp average value (Caco-2 cells; BL→AP) of the same molecule?
Answer: Its Papp average value is 18.1 10^−6 cm/s.

Question: And the Papp (Caco-2 cells; BL→AP)?
Answer: The Papp was 18.0 10^−6 cm/s and 18.2 10^−6 cm/s.

Question: And the “Receiving chamber concentration Area ratio/OD” value (Caco-2 cells; BL→AP)?
Answer: The value was 0.699 and 0.708.

Question: And the “Penetration Type” value (Caco-2 cells; Caco2 cell model)?
Answer: The value was “High”.

Question: What about the “intestinal permeability” value (Caco-2 cells; Caco2 cell model) of the same molecule?
Answer: The value was “high intestinal hypertonicity”.

Source: patent US20260055126A1, “SMALL MOLECULE COMPOUNDS WITH PHOSPHORYLATED ARYL STRUCTURES AND USE THEREOF” (HANGZHOU PHECDAMED CO., LTD., priority 2022, published 2026)
